Experimental data reported in patent publication US20230295200A1 (REGENTS OF THE UNIVERSITY OF MICHIGAN, priority 2022, published 2023).

These compounds were tested against T1, STAT6 protein (Homo sapiens, UniProt P42226) (assay: Fluorescence polarization (FP) binding assay, STAT6). Settings: FP competition, 5 nM fluorescein-labeled tracer, 200 nM protein, PBS pH7.4; read-out: Binding STAT6.
T1 sequence (P42226 1-847): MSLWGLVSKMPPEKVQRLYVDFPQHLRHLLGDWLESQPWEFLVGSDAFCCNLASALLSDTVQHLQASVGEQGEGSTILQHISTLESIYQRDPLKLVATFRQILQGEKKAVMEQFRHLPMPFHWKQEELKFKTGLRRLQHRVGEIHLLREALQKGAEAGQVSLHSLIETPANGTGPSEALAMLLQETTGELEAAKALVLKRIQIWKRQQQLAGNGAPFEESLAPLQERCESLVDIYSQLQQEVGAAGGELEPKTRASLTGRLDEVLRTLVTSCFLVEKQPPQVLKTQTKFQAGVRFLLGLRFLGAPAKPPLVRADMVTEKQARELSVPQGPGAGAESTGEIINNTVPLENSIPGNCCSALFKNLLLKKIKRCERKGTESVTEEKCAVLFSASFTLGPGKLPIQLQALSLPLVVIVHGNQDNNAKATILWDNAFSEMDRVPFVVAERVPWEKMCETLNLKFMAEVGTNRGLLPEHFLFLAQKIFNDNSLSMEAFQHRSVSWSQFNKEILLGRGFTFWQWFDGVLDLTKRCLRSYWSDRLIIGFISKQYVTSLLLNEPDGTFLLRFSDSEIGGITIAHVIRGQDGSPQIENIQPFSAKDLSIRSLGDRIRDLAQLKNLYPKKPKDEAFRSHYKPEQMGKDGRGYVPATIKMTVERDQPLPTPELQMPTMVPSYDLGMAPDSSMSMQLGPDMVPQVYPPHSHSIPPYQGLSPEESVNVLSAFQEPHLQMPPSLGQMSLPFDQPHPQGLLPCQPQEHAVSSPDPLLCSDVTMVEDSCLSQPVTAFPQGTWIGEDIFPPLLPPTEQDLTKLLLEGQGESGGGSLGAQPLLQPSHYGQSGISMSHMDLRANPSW
Procedure, shortened: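 Each well holds 200 nM STAT5 and/or STAT6 with 5 nM fluorescent tracer in PBS pH 7.4 (0.01% BGG, 0.01% Tween-20, 2 mM DTT). Binding reaches equilibrium over 1 h at room temperature after brief shaking, and polarization data are fitted nonlinearly.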

Ki	SMILES
> 10 µM	CN1CC[C@H]2CC[C@@H](C(=O)N3CCc4ccccc4C3)N2C(=O)[C@@H](NC(=O)c2cc3cc(C(F)(F)P(=O)(O)O)ccc3s2)C1 [Compound 331, (difluoro(2-(((5S,8S,10aR)-3-methyl-6-oxo-8-(1,2,3,4-tetrahydroisoquinoline-2-carbonyl)decahydropyrrolo[1,2-a][1,5]diazocin-5-yl)carbamoyl)benzo[b]thiophen-5-yl)methyl)phosphonic acid]
> 10 µM	CC(=O)N1CC[C@H]2CC[C@@H](C(=O)N3CCc4ccccc4C3)N2C(=O)[C@@H](NC(=O)c2cc3cc(C(F)(F)P(=O)(O)O)ccc3[nH]2)C1 [Compound 332, ((2-(((5S,8S,10aR)-3-acetyl-6-oxo-8-(1,2,3,4-tetrahydroisoquinoline-2-carbonyl)decahydropyrrolo[1,2-a][1,5]diazocin-5-yl)carbamoyl)-1H-indol-5-yl)difluoromethyl)phosphonic acid]
> 10 µM	CC(=O)N1CC[C@H]2CC[C@@H](C(=O)N3CCc4ccccc4C3)N2C(=O)[C@@H](NC(=O)c2cc3cc(C(F)(F)P(=O)(O)O)ccc3s2)C1 [Compound 333, ((2-(((5S,8S,10aR)-3-acetyl-6-oxo-8-(1,2,3,4-tetrahydroisoquinoline-2-carbonyl)decahydropyrrolo[1,2-a][1,5]diazocin-5-yl)carbamoyl)benzo[b]thiophen-5-yl)difluoromethyl)phosphonic acid]
> 10 µM	CC(=O)N1CC[C@H]2CC[C@@H](C(=O)N3CCc4ccccc4C3)N2C(=O)[C@@H](NC(=O)c2ccc3ccc(C(F)(F)P(=O)(O)O)cc3c2)C1 [Compound 334, ((7-(((5S,8S,10aR)-3-acetyl-6-oxo-8-(1,2,3,4-tetrahydroisoquinoline-2-carbonyl)decahydropyrrolo[1,2-a][1,5]diazocin-5-yl)carbamoyl)naphthalen-2-yl)difluoromethyl)phosphonic acid]
> 10 µM	CC(=O)N1CC[C@H]2CC[C@@H](C(=O)NCc3ccccc3)N2C(=O)[C@@H](NC(=O)c2cc3cc(C(F)(F)P(=O)(O)O)ccc3[nH]2)C1 [Compound 335, ((2-(((5S,8S,10aR)-3-acetyl-8-(benzylcarbamoyl)-6-oxodecahydropyrrolo[1,2-a][1,5]diazocin-5-yl)carbamoyl)-1H-indol-5-yl)difluoromethyl)phosphonic acid]
1 to 10 µM	CC(=O)N1CC[C@H]2CC[C@@H](C(=O)N(C)Cc3ccccc3)N2C(=O)[C@@H](NC(=O)c2cc3cc(C(F)(F)P(=O)(O)O)ccc3[nH]2)C1 [Compound 336, ((2-(((5S,8S,10aR)-3-acetyl-8-(benzyl(methyl)carbamoyl)-6-oxodecahydropyrrolo[1,2-a][1,5]diazocin-5-yl)carbamoyl)-1H-indol-5-yl)difluoromethyl)phosphonic acid]
1 to 10 µM	CC(=O)N1CC[C@H]2CC[C@@H](C(=O)N[C@@H](C)c3ccccc3)N2C(=O)[C@@H](NC(=O)c2cc3cc(C(F)(F)P(=O)(O)O)ccc3[nH]2)C1 [Compound 337, ((2-(((5S,8S,10aR)-3-acetyl-6-oxo-8-(((S)-1-phenylethyl)carbamoyl)decahydropyrrolo[1,2-a][1,5]diazocin-5-yl)carbamoyl)-1H-indol-5-yl)difluoromethyl)phosphonic acid]
> 10 µM	CC(=O)N1CC[C@H]2CC[C@@H](C(=O)N[C@H](C)c3ccccc3)N2C(=O)[C@@H](NC(=O)c2cc3cc(C(F)(F)P(=O)(O)O)ccc3[nH]2)C1 [Compound 338, ((2-(((5S,8S,10aR)-3-acetyl-6-oxo-8-(((R)-1-phenylethyl)carbamoyl)decahydropyrrolo[1,2-a][1,5]diazocin-5-yl)carbamoyl)-1H-indol-5-yl)difluoromethyl)phosphonic acid]
> 10 µM	CC(=O)N1CC[C@H]2CC[C@@H](C(=O)NC(C)(C)c3ccccc3)N2C(=O)[C@@H](NC(=O)c2cc3cc(C(F)(F)P(=O)(O)O)ccc3[nH]2)C1 [Compound 339, ((2-(((5S,8S,10aR)-3-acetyl-6-oxo-8-((2-phenylpropan-2-yl)carbamoyl)decahydropyrrolo[1,2-a][1,5]diazocin-5-yl)carbamoyl)-1H-indol-5-yl)difluoromethyl)phosphonic acid]
> 10 µM	CC(=O)N1CC[C@H]2CC[C@@H](C(=O)NC3(c4ccccc4)CC3)N2C(=O)[C@@H](NC(=O)c2cc3cc(C(F)(F)P(=O)(O)O)ccc3[nH]2)C1 [Compound 340, ((2-(((5S,8S,10aR)-3-acetyl-6-oxo-8-((1-phenylcyclopropyl)carbamoyl)deca hydropyrrolo[1,2-a][1,5]diazocin-5-yl)carbamoyl)-1H-indol-5-yl)difluoromethyl)phosphonic acid]
1 to 10 µM	CC(=O)N1CC[C@H]2CC[C@@H](C(=O)NC3(c4ccccc4)CCOCC3)N2C(=O)[C@@H](NC(=O)c2cc3cc(C(F)(F)P(=O)(O)O)ccc3[nH]2)C1 [Compound 341, ((2-(((5S,8S,10aR)-3-acetyl-6-oxo-8-((4-phenyltetrahydro-2H-pyran-4-yl)carbamoyl)decahydropyrrolo[1,2-a][1,5]diazocin-5-yl)carbamoyl)-1H-indol-5-yl)difluoromethyl)phosphonic acid]
1 to 10 µM	CC(=O)N1CC[C@H]2CC[C@@H](C(=O)N(Cc3ccccc3)C3CCCCC3)N2C(=O)[C@@H](NC(=O)c2cc3cc(C(F)(F)P(=O)(O)O)ccc3[nH]2)C1 [Compound 342, ((2-(((5S,8S,10aR)-3-acetyl-8-(benzyl(cyclohexyl)carbamoyl)-6-oxodecahydropyrrolo[1,2-a][1,5]diazocin-5-yl)carbamoyl)-1H-indol-5-yl)difluoromethyl)phosphonic acid]
1 to 10 µM	CC(=O)N1CC[C@H]2CC[C@@H](C(=O)N3CCc4c(F)cccc4C3)N2C(=O)[C@@H](NC(=O)c2cc3cc(C(F)(F)P(=O)(O)O)ccc3[nH]2)C1 [Compound 343, ((2-(((5S,8S,10aR)-3-acetyl-8-(5-fluoro-1,2,3,4-tetrahydroisoquinoline-2-carbonyl)-6-oxodecahydropyrrolo[1,2-a][1,5]diazocin-5-yl)carbamoyl)-1H-indol-5-yl)difluoromethyl)phosphonic acid]
> 10 µM	CC(=O)N1CC[C@H]2CC[C@@H](C(=O)N3CCc4cc(F)ccc4C3)N2C(=O)[C@@H](NC(=O)c2cc3cc(C(F)(F)P(=O)(O)O)ccc3[nH]2)C1 [Compound 344, ((2-(((5S,8,10aR)-3-acetyl-8-(6-fluoro-1,2,3,4-tetrahydroisoquinoline-2-carbonyl)-6-oxodecahydropyrrolo[1,2-a][1,5]diazocin-5-yl)carbamoyl)-1H-indol-5-yl)difluoromethyl)phosphonic acid]
> 10 µM	CC(=O)N1CC[C@H]2CC[C@@H](C(=O)N3CCc4ccc(F)cc4C3)N2C(=O)[C@@H](NC(=O)c2cc3cc(C(F)(F)P(=O)(O)O)ccc3[nH]2)C1 [Compound 355, ((2-(((5S,8S,10aR)-3-acetyl-8-(7-fluoro-1,2,3,4-tetrahydroisoquinoline-2-carbonyl)-6-oxodecahydropyrrolo[1,2-a][1,5]diazocin-5-yl)carbamoyl)-1H-indol-5-yl)difluoromethyl)phosphonic acid]
> 10 µM	CC(=O)N1CC[C@H]2CC[C@@H](C(=O)N3CCc4cccc(F)c4C3)N2C(=O)[C@@H](NC(=O)c2cc3cc(C(F)(F)P(=O)(O)O)ccc3[nH]2)C1 [Compound 356, ((2-(((5S,8S,10aR)-3-acetyl-8-(8-fluoro-1,2,3,4-tetrahydroisoquinoline-2-carbonyl)-6-oxodecahydropyrrolo[1,2-a][1,5]diazocin-5-yl)carbamoyl)-1H-indol-5-yl)difluoromethyl)phosphonic acid]
> 10 µM	CC(=O)N1CC[C@H]2CC[C@@H](C(=O)N3CCc4ccc(C)cc4C3)N2C(=O)[C@@H](NC(=O)c2cc3cc(C(F)(F)P(=O)(O)O)ccc3[nH]2)C1 [Compound 357, ((2-(((5S,8S,10aR)-3-acetyl-8-(7-methyl-1,2,3,4-tetrahydroisoquinoline-2-carbonyl)-6-oxodecahydropyrrolo[1,2-a][1,5]diazocin-5-yl)carbamoyl)-1H-indol-5-yl)difluoromethyl)phosphonic acid]
> 10 µM	CC(=O)N1CC[C@H]2CC[C@@H](C(=O)N3CCc4ccc(C(F)(F)F)cc4C3)N2C(=O)[C@@H](NC(=O)c2cc3cc(C(F)(F)P(=O)(O)O)ccc3[nH]2)C1 [Compound 358, ((2-(((5S,8S,10aR)-3-acetyl-6-oxo-8-(7-(trifluoromethyl)-1,2,3,4-tetrahydroisoquinoline-2-carbonyl)decahydropyrrolo[1,2-a][1,5]diazocin-5-yl)carbamoyl)-1H-indol-5-yl)difluoromethyl)phosphonic acid]
